For data set [1] the following is noted: from CC(C)(C)OC(=O)NCC(C)(C)OCCC[C@@](OCc1ccccc1)(c1nnc(-c2nc(Cl)c(C(F)(F)F)cc2[N+](=O)[O-])o1)C(F)(F)F; snar bond; 14-membered ring; TFA; then DIEA; DCM; 0.96 mM; 25.0 °C; 2 steps.

Read-outs that look alike come from different tables or passages of the source.

`CC1(C)CNc2nc(c([N+](=O)[O-])cc2C(F)(F)F)C2=NN=C(O2)[C@@](OCc2ccccc2)(C(F)(F)F)CCCO1` had a ring closure, crude yield in data set [1] of 99%. In turn, `CN1CCN(C)c2nc(c(NC(=O)OC(C)(C)C)cc2C(F)(F)F)C2=NN=C(O2)C(OCc2ccccc2)(C(F)(F)F)CCC1=O` (centres unmarked) had a ring closure, yield after HPLC (from CNCCN(C)c1nc(-c2nnc(C(CCC(=O)O)(OCc3ccccc3)C(F)(F)F)o2)c(NC(=O)OC(C)(C)C)cc1C(F)(F)F, amide bond, 14-membered ring, HATU/DIEA, DMF, 9.16 mM, 25.0 °C, 3.0 h) of 70%. In turn, “6-benzyloxy-12,12-dimethyl-17-nitro-6,15-bis(trifluoromethyl)-19-oxa-3,4,13,18-tetrazatricyclo[12.3.1.12,5]nonadeca-1(18),2,4,8,14,16-hexaen-7-ol (E/Z olefin mixture, cis diol)” yielded a ring closure, yield after HPLC (rcm bond, 14-membered ring, Zhan catalyst-1B, 70.0 °C) of 49%.

As for `CC(C)(C)OC(=O)Nc1cc(C(F)(F)F)c2nc1-c1nnc(o1)C(OCc1ccccc1)(C(F)(F)F)CCC=CC1CCCN21` (mixture of isomers), the ring closure, yield after HPLC (from C=CCCC(OCc1ccccc1)(c1nnc(-c2nc(N3CCCC3C=C)c(C(F)(F)F)cc2NC(=O)OC(C)(C)C)o1)C(F)(F)F, rcm bond, 13-membered ring, Zhan-1B (two charges), DCE, 6.25 mM, 85.0 °C, 23.0 h) was determined as 3%.

Regarding `CC1(C)CCC=CC[C@](OCc2ccccc2)(C(F)(F)F)C2=NN=C(O2)c2nc(c(C(F)F)cc2[N+](=O)[O-])N1` (mixture of isomers), the ring closure, yield after HPLC (from C=CCCC(C)(C)Nc1nc(-c2nnc([C@@](CC=C)(OCc3ccccc3)C(F)(F)F)o2)c([N+](=O)[O-])cc1C(F)F, rcm bond, 14-membered ring, Zhan catalyst-1B, DCE, 5.67 mM, 65.0 °C, 4.5 h) is 20%.

Source of the values: patent publication US12324802B2, “Modulators of cystic fibrosis transmembrane conductance regulator” (Vertex Pharmaceuticals Incorporated, priority 2020, dated 2025).
